The values below are quoted from earlier work in US20230000079A1, “COMBINATION COMPRISING A TRIKETONE HERBICIDE AND A DIPHENYLETHER HERBICIDE, AND A METHOD FOR MAKING AND USING THE COMBINATION” (Generic Crop Science LLC, priority 2021, published 2023).

Converted amounts (≈) assume the structure as drawn.

On to `CS(=O)(=O)c1ccc(C(=O)C2C(=O)CCCC2=O)c([N+](=O)[O-])c1` [Mesotrione, 2-[4-(methylsulfonyl)-2-nitrobenzoyl]cyclohexane-1,3-dione], for which the water solubility (20° C.) is reported as 1,500 mg/L.

As for `CCOc1cc(Oc2ccc(C(F)(F)F)cc2Cl)ccc1[N+](=O)[O-]` [Oxyfluorfen, 2-chloro-4-(trifluoromethyl)phenyl 3-ethoxy-4-nitrophenyl ether], the “solubility in most organic solvents” value is “highly soluble” and the solubility in water was 0.1 µg/mL (≈ 0.276 µM).
